Laboratory results: patent publication US20210276960A1, “INHIBITORS OF TISSUE TRANSGLUTAMINASE 2 (TG2) AND USES THEREOF” (Northwestern University, priority 2020, published 2021)

Legend:
[1] = test system: OVCAR433 cells adhesion to FN; assay: Solid phase adhesion assay to FN, OVCAR433; type: cell-based; parameters: inhibition of adhesion to FN relative to TG53: dose or concentration left out as unconfirmed
Protocol: Cells labeled with calcein AM (Life Technologies, #L3224) were seeded at a density of 4×10^4 cells in 96-well plates pre-coated with FN (5 μg/mL, Sigma, #F1141), and blocked using 1% BSA (Sigma, #A9647) in PBS in the presence of selected compounds diluted at the specified concentrations, in serum free media. After 45 minutes, unattached cells were washed using PBS containing 1 mM MgCl2(Sigma, #M8266) and adherent cells were quantified in a SpectraMaxGeminiXS fluorescence plate reader (Molecular Devices, Palo Alto, Calif.) at 530 nm wavelength. Experiments were performed inquadruplicate and repeated at least twice.

SKOV3-GFP cells = assay: In vivo cell attachment to the peritoneum; parameters: species or system mice; conditions: for unattached OC cells recovered from the peritoneal cavity: NSG mice, ip, 10 μg/kg, 2 hours after injection
OVCAR5 cells = assay: Colony forming assay after priming, with paclitaxel; type: cell-based, human; conditions: priming with 1 μM for 72 hours before 5 nM PTX
Protocol: After 72 h priming with either 1 μM MT-4, TG53 or vehicle (DMSO), 150 OVCAR5 cells were seeded in 60 mm dishes and treated or not with paclitaxel (PTX, Sigma). Colonies were allowed to form over 10 days, fixed in 4% PFA and stained with 0.4% crystal violet (MP Biomedicals). Colonies were counted, and analysis was performed using the ImageJ software ([…]).Spheroid cultures were carried out as previously described(Condello et al., 2015). Briefly, OC cells were resuspended in Mammocult complete medium (StemCell Technologies) supplemented with Mammocult Proliferation Supplements, heparin and hydrocortisone (StemCell Technologies) and seeded at a concentration of 10,000 cells/well in 96-well ultra-low attachment plates (Corning, Corning, N.Y., USA). After treatment with DMSO (control) or TG53 (1 μM) for 7 days, spheroids were counted and quantified by the CCK-8 assay. All assays were performed in four replicates and were repeated. For priming before PTX treatment, cells were manipulated as described for CFU assay and then seeded in 6-well low-attachment plate (Corning, #3473) at 7000 cells/mL/well and allowed to form spheroids in complete Mammocult media. Spheres were counted after ten days from 4 replicate wells. Two independent experiments were performed.

[2] = test system: OVCAR5 cells attachment onto FN; assay: Early attachment assay with IF staining; type: cell-based, human; conditions: 1 μM, 72 hours pre-treatment, 30 minutes after seeding
Protocol: OVCAR5 cells were seeded(1×10^5 cells/well) in 6-well plates (Denville Scientific) and treated for 72 hrs with 1 μM MT-4, TG53 or vehicle control (DMSO). After drug exposure, cells were detached using Cellstripper (cellgro, #25-056-CI, CORNING, Manassas, Va., USA), centrifuged, and counted. Before seeding for either confocal microscopy or western blotting, they were incubated in serum free media in the presence of drugs for 15-90 minutes, as stated in the figure legends.
In order to analyze cell adhesion complex proteins expression and localization upon early attachment, cells were treated as stated above and then seeded onto FN-coated cover slips for 30 minutes at 37° C. Samples were fixed in 4% p-formaldehyde (PFA) and permeabilized with 0.2% Triton-X-100. After blocking, focal contacts were identified by using anti-vinculin antibodies, activation of integrins signaling pathway was assessed by antibodies against phosphorylated focal adhesion kinase (FAK), while actin cytoskeleton was labeled by Alexa Fluor 488-conjugated phalloidin (Life Technologies, #A12379). Nuclei were stained with 1:10000 Hoechst (Thermo Scientific) and specimens were mounted in Prolong Gold anti-fadereagent (Life Technologies). Cells were analyzed by laser scanning using a Nikon A1RGaAsPConfocal Laser Microscope. For co-localization analyses, SKOV3 cells were treated with DMSO (control) or TG53 (1 μM) and plated on FN-coated chamber slides (BD Biosciences) for 72 hrs. IF analysis was performed as previously described (Condello et al., 2013b). Briefly, after fixation, permeabilization and blocking, cells were incubated overnight with p-FAK (Y576/577), c-Src, p-Src (Y416), integrin β1 or TG2 primary antibodies in blocking buffer at 4° C., followed by 1 h incubation with Cy5-conjugated anti-mouse secondary antibody (1:500; Zymed Laboratories; South San Francisco, Calif., USA) or Alexa Fluor 488 anti-rabbit secondary antibody (1:1000; Molecular Probes, Eugene, Oreg., USA) at RT. Isotype-specific IgG was used as a negative control. Nuclei were visualized by 4′,6-diamidino-2-phenylindole (DAPI) staining (Vectashield; Vector Laboratories, Burlingame, Calif., USA). Analysis was done using an LSM 510 META confocal multiphoton microscope system (Carl Zeiss Inc., Thomwood, N.Y., USA) under UV excitation at 630 nm (for Cy5), 488 nm (for Alexa Fluor 488), and 340 nm (for DAPI) and using a 60× magnification objective. Colocalization percentage was calculated by normalizing the pixels corresponding to Cy5 or Alexa Fluor 488 emissions to DAPI pixels in the same cell, followed by merging area of green with area of red and determination of average of overlap areas. A Student' t test was calculated to determine statistical significance of differences between drug treated and DMSO control treated cells.

[3] = test system: integrin β1 on OVCAR5 cells; assay: Flow cytometry of surface integrin β1, OVCAR5; type: cell-based, human; conditions: serial concentrations
Protocol: FIG. 32. Flow cytometry analysis of integrin 31 plasma membrane expression. […] OC cells were pre-incubated 1 h with serial dilutions of MT4 (as compared to TG53- and DMSO-treated cells), and left to attach for on either plastic (P) or fibronectin (FN) coated 6-well plates. Anti-integrin 31 antibodies (0.5 μg/mL) were used as control.

[4] = test system: FAK phosphorylation in SKOV3 cells; assay: Western blotting, FAK phosphorylation dose response; type: cell-based; conditions: increasing doses (TG53 8 to 16 μM), 2 hours after adhesion to FN
Protocol: FIG. 33. Dose response effects induced by TG2-FN inhibitors on FAK phosphorylation.
Lysates were separated by SDS-PAGE, transferred onto PVDF membranes (Bio-Rad), incubated with primary and secondary antibodies and developed by using SuperSignal™ West Femto Maximum Sensitivity Substrate and Pierce™ ECL Western Blotting Substrate, respectively (Thermo Scientific). Images were obtained by using the ImageQuant LAS 4000 mini-imager (GE Healthcare, Pittsburgh, Pa.). Densitometry analysis was performed using Quantity One software (Bio-Rad) and results were normalized to GAPDH loading controls. DMSO 0 min time point was considered as 1 for comparative analysis.

OC cells = conditions: 10 μM; not shown, see ref 11; cited from earlier work
SKOV3 cells = conditions: cited from earlier work

SMILES	inhibition of adhesion to FN relative to TG53 [1]	cell adhesion to FN, dose dependence ([1]; 2 μM-25 μM)	unattached OC cells recovered from the peritoneal cavity (SKOV3-GFP cells)	unattached OC cells recovered from the peritoneal cavity (SKOV3-GFP cells; listed as MT4)	adhesion of cancer cells to the peritoneum (SKOV3-GFP cells; nude mice, i.p., 2 hours)	colony formation (OVCAR5 cells)	FAK phosphorylation (IF) [2]	number of focal contacts with FN-coated substrate (vinculin) [2]	β1 integrin receptors at the plasma membrane [3]	FAK phosphorylation [4]	wound closure, cell migration rate, and invasion through matrigel coated trans-well plates (OC cells)	cytotoxicity (SKOV3 cells)
Cc1cc(N(C)C)nc(Nc2ccc(NC(=O)Cc3ccccc3)cc2)n1 [MT-4]	more active than TG53	dose-dependent inhibitory effect	attached less efficiently	Increased numbers	prevented the adhesion	diminished	decreased	decreased	did not show significant downregulation	dose-dependent inhibition	–	–
COc1ccc(Cl)cc1C(=O)Nc1ccc(Nc2nc(C)cc(N(C)C)n2)cc1 [TG53]	–	–	–	–	–	–	decreased	decreased	did not show significant downregulation	attenuated	decreased	not cytotoxic
